Assays:
[1] = target: T1, Acid-sensing ion channel 3 (Homo sapiens, UniProt Q9UHC3); test: Inhibition of human ASIC3 expressed in HEK293 cells assessed as inhibition of acid-evoked current by manual patch-clamp electrophysiology assay; assay type: cell-based
T1 sequence (Q9UHC3 whole entry): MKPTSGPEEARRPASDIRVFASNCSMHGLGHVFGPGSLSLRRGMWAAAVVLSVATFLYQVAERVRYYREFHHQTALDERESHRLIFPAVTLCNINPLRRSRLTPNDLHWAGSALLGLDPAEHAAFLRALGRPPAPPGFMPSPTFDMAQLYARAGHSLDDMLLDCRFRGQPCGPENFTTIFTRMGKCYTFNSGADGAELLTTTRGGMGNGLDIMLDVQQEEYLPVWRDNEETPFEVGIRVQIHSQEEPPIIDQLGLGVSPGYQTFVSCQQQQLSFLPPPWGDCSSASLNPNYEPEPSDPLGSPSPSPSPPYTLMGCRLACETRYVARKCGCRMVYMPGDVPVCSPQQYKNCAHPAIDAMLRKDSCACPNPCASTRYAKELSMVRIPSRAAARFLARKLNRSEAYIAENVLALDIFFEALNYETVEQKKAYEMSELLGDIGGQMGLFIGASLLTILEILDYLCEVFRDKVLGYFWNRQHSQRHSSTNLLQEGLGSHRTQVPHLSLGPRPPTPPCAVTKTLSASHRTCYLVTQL

[2] = target: CYP2C9 (Homo sapiens, UniProt P11712); test: Inhibition of CYP2C9 at 10 uM; assay type: ADME
[3] = Plasma protein binding in rat; assay type: ADME, cell-free; settings: read-out: PPB (converted)
[4] = Plasma protein binding in human; assay type: ADME, cell-free; settings: read-out: PPB (converted)
[5] = target: CYP3A4 (Homo sapiens, UniProt P08684); test: Inhibition of CYP3A4 at 10 uM; assay type: ADME
[6] = target: Voltage-dependent L-type calcium channel subunit alpha-1C (Homo sapiens, UniProt Q13936); test: Inhibition of Cav1.2
[7] = Lipophilicity, log D of the compound by HPLC; assay type: physicochemical
[8] = target: CYP2D6 (Homo sapiens, UniProt P10635); test: Inhibition of CYP2D6 at 10 uM; assay type: ADME
[9] = target: Voltage-gated inwardly rectifying potassium channel KCNH2 (Homo sapiens, UniProt Q12809); test: Binding affinity to human ERG
[10] = Clearance in rat; assay type: ADME, organism-based; settings: in vivo
[11] = Volume of distribution in rat; assay type: ADME, organism-based; settings: in vivo
[12] = Half life in rat; assay type: ADME, organism-based; settings: in vivo
[13] = target: T2, Acid-sensing ion channel 3 (Homo sapiens) (UniProt Q9UHC3); test: Inhibition of human ASIC3 expressed in HEK293 cells assessed as inhibition of acid-evoked current at 500 uM by manual patch-clamp electrophysiology assay; assay type: cell-based
T2 sequence (whole entry): T1 sequence (Q9UHC3 whole entry)

[14] = target: T2, Acid-sensing ion channel 3 (Homo sapiens); test: Inhibition of human ASIC3 expressed in HEK293 cells assessed as inhibition of acid-evoked current at 1000 uM by manual patch-clamp electrophysiology assay; assay type: cell-based
[15] = target: T2, Acid-sensing ion channel 3 (Homo sapiens); test: Inhibition of human ASIC3 expressed in HEK293 cells assessed as inhibition of acid-evoked current at 10 uM by manual patch-clamp electrophysiology assay; assay type: cell-based

Chain of CYP2D6 (P10635 whole entry): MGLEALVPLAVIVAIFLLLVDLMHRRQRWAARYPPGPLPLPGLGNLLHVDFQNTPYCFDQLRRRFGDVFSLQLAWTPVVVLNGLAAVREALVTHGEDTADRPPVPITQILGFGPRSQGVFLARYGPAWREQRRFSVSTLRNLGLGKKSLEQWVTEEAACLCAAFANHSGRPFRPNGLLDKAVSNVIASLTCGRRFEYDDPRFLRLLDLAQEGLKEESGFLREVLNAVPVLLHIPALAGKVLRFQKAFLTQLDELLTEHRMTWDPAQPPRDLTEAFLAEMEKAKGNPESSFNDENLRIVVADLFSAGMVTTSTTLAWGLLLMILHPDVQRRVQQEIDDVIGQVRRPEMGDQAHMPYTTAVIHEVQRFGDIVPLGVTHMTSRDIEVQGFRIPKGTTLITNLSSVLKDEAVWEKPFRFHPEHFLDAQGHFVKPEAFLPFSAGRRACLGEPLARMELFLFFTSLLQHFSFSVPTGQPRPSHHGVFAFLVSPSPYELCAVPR
Chain of CYP2C9 (P11712 whole entry): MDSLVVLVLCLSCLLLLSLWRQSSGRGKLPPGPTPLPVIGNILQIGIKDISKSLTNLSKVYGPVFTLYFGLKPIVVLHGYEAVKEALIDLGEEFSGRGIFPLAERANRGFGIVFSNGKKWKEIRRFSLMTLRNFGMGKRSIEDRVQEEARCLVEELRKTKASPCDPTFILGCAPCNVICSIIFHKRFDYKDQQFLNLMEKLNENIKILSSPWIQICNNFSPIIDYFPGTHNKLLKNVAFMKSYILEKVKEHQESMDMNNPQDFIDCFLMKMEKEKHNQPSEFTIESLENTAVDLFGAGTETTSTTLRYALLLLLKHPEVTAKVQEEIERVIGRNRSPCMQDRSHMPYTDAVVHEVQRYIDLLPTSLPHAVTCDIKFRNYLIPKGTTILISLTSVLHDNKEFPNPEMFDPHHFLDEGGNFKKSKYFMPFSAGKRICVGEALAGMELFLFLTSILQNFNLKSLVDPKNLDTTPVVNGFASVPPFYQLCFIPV
Chain of Voltage-dependent L-type calcium channel subunit alpha-1C (Q13936 whole entry): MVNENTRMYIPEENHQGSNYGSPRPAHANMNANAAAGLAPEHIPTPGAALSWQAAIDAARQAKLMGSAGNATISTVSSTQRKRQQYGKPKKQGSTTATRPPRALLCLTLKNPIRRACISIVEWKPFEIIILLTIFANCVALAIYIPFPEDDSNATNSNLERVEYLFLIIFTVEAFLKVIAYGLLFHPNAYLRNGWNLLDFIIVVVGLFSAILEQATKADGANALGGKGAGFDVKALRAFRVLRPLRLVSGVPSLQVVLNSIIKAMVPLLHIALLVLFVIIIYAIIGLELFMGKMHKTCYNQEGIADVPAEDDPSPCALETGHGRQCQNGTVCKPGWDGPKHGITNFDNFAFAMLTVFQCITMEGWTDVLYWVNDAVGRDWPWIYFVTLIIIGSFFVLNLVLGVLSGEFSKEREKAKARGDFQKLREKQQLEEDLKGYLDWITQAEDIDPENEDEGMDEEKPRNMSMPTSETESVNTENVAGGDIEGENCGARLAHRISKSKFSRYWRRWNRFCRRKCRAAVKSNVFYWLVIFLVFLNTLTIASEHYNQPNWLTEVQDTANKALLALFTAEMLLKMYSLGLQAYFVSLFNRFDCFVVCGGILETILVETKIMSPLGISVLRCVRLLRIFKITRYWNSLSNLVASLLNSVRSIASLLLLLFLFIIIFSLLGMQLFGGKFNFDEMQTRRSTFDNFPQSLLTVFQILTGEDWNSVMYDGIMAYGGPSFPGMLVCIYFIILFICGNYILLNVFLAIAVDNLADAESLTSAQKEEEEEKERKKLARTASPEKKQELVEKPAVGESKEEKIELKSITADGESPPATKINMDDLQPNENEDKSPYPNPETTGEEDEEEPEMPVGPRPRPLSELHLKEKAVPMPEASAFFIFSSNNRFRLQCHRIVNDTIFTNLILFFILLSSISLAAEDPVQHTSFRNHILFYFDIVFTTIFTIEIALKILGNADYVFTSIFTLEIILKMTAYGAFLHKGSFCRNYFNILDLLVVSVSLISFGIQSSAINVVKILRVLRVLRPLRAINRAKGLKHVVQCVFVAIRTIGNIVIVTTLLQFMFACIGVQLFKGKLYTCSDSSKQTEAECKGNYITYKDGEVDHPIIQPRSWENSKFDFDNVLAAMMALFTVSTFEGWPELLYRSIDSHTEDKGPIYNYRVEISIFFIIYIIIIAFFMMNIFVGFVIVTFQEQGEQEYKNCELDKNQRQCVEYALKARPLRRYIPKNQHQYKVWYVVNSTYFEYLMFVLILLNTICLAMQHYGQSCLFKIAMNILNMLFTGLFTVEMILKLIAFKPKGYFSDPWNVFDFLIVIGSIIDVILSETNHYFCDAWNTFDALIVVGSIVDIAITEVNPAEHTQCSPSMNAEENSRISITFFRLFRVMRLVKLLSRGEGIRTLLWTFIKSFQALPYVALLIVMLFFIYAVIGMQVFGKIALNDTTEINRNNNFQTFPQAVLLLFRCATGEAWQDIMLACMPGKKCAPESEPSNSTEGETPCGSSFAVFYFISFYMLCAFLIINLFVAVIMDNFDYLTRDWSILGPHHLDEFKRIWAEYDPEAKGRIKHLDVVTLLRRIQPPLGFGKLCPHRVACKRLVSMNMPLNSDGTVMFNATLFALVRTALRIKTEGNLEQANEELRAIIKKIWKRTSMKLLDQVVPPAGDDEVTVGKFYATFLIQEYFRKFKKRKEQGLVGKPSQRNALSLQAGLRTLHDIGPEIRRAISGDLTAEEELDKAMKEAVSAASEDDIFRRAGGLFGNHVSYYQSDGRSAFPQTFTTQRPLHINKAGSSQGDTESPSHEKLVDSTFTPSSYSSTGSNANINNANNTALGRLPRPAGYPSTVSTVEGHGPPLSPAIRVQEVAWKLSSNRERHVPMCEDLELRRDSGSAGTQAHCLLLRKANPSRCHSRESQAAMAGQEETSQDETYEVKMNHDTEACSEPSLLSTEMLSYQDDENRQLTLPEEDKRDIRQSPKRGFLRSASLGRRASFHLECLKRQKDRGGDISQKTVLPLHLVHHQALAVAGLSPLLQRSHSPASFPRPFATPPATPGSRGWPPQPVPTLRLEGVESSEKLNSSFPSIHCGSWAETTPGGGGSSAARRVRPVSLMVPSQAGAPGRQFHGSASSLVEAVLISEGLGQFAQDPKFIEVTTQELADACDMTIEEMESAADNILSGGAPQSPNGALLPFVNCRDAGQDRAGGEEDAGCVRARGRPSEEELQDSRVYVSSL
Chain of CYP3A4 (P08684 whole entry): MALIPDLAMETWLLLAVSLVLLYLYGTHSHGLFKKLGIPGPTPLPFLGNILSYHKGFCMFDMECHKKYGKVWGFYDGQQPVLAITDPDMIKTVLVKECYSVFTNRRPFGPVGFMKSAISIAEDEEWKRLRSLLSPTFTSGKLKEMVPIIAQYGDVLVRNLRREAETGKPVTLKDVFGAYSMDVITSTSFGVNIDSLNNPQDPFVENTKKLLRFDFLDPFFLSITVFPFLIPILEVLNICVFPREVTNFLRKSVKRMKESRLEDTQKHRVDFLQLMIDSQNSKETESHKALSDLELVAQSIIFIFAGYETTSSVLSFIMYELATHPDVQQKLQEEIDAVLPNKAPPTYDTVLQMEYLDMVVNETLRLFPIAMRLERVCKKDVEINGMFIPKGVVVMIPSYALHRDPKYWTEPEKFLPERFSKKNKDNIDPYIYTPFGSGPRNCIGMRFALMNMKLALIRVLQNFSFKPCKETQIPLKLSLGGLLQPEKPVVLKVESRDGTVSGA
Chain of Voltage-gated inwardly rectifying potassium channel KCNH2 (Q12809 whole entry): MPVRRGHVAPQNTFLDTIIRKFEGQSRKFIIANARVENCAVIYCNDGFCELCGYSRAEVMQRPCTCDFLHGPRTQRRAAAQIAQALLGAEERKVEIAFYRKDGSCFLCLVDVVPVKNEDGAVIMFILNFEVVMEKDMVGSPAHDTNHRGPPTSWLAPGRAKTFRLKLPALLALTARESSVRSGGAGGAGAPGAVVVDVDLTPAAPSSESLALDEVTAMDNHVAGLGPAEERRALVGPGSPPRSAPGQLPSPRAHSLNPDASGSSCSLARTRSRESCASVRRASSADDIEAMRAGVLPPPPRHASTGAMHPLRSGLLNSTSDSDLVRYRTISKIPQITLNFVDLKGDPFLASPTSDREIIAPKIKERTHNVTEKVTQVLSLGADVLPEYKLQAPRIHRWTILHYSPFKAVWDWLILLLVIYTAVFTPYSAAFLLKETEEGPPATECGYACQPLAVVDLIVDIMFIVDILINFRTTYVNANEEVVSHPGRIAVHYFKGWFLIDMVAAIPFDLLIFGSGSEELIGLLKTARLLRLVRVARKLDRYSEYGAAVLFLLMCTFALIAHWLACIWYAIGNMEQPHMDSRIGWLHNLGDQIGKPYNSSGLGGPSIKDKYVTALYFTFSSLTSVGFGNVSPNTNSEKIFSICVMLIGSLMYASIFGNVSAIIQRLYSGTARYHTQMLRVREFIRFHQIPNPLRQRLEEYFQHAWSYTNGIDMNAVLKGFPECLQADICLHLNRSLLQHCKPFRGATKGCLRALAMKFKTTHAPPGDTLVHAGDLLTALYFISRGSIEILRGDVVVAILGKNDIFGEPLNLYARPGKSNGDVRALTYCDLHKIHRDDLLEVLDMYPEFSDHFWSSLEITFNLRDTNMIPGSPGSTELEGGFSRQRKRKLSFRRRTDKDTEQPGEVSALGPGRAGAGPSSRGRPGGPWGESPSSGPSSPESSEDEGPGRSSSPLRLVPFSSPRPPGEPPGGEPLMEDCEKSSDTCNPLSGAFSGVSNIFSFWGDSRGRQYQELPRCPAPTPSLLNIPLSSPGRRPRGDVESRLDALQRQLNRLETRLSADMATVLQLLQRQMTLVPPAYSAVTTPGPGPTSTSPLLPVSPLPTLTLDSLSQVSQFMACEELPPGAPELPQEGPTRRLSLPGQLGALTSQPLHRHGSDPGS

Row | IC50 [1] [µM] | Compound | other results
1 | 1.2 | Nc1ccnc(-c2cccc(C#Cc3ccccc3)c2)c1 | –
2 | 5.8 | Nc1cc(Cc2ccccn2)nc(-c2ccccc2)c1 | –
3 | 17 | Cc1cccc(Nc2ccc(C#CC(C)(C)O)cc2)n1 | –
4 | 3.8 | Cc1cccc(Nc2ccc(-c3ccc(N4CCNCC4)nc3)cc2)n1 | Ki [9]: 0.7 µM; inhibition at 10 µM [2]: < 45%; fraction unbound [3]: 0.007; fraction unbound [4]: 0.098; inhibition at 10 µM [5]: < 45%; IC50 [6]: 20 µM; clearance [10]: 11 mL/min/kg; logD [7]: 1.99; inhibition at 10 µM [8]: < 45%; Vd [11]: 3.5 L/kg; half-life [12]: 4.8 h
5 | 130 | Nc1cc(-c2ccccc2)ncn1 | –
6 | 9.6 | CCCc1cc(N)c2cc(C(=O)NCCc3ccc(Cl)cc3)ccc2n1 | –
7 | 97 | NCc1cc2ccccc2s1 | –
8 | 27.6 | Cc1cc(N2CCc3cc(Br)ccc3C2)c2ccccc2n1 | –
9 | 2.6 | Nc1ccnc(-c2cccc(C#CCCO)c2)c1 | –
10 | 190 | COc1cccnc1Nc1cccc(C)n1 | –
11 | 763 | Nc1cccc(-c2ccccc2)n1 | –
12 | 6.9 | Nc1ccnc(-c2ccccc2)c1 | –
13 | 9 | Cc1cccc(Nc2nccc3ccoc23)n1 | –
14 | 1.7 | CC1CCCCN1c1cccc(-c2ccc3c(c2)CCNC3)n1 (stereo unspecified) | –
15 | 430 | Nc1ccc(-c2c[nH]cn2)cc1 | –
16 | 160 | NCc1ccc(-c2c[nH]cn2)cc1 | –

The next lines start with the compound.

Row | Compound | IC50 [1] [µM] | other results
17 | CN1CCN(c2ccc(-c3ccc4c(c3)CCNC4)cc2C(F)(F)F)CC1 | 3.1 | inhibition at 10 µM [2]: < 35%; fraction unbound [3]: 0.011; fraction unbound [4]: 0.11; inhibition at 10 µM [5]: < 35%; IC50 [6]: > 30 µM; logD [7]: 2.13; inhibition at 10 µM [8]: < 35%
18 | COc1ccc2[nH]cc(CN3CCc4cc(Br)ccc4C3)c2c1 | 10.9 | –
19 | Brc1ccc2c(c1)CCN2 | – | inhibition [13]: 12%
20 | c1cc2c(cc1-c1cnc3c(c1)CCN3)CCNC2 | 19.4 | –
21 | Brc1ccc2c(c1)CCNC2 | 701 | –
22 | COc1ccc2[nH]cc(CN3CCc4cc(-c5cccc(C(F)(F)F)c5)ccc4C3)c2c1 | 103 | –
23 | NCc1nc2ccccc2s1 | 363 | –
24 | Clc1cc(Cl)cc(-c2ccc3c(c2)CCNC3)c1 | 3.3 | –
25 | c1ccc(-c2c[nH]cn2)cc1 | – | inhibition [14]: 66%
26 | CN1CCN(c2ccc(-c3ccc4c(c3)CCNC4)cc2)CC1 | 14.4 | –
27 | FC(F)(F)c1cccc(-c2ccc3c(c2)CCNC3)c1 | 7.1 | –
28 | CCCc1cc(NC)c2cc(C(=O)NCCc3ccc(Cl)cc3)ccc2n1 | – | inhibition [15]: 3%

Reference: ChEMBL document CHEMBL1770137, “High concentration electrophysiology-based fragment screen: discovery of novel acid-sensing ion channel 3 (ASIC3) inhibitors” (Bioorg Med Chem Lett, 2011)
